According to patent US10071080B2, “MIF inhibitors for the acute or chronic treatment of pulmonary hypertension” (MIFCARE, priority 2014, dated 2018):

Key:
recombinant human MIF = target: T1, recombinant human MIF (Homo sapiens, UniProt P14174); assay: MIF tautomerase assay using 4-hydroxyphenylpyruvate (4-HPP); type: biochemical; settings: for inhibition at 0.001 µM: compounds at 1 nM, substrate 4-HPP, compared to positive control with rhMIF alone
T1 construct: purchased RayBiotech
T1 sequence (P14174 2-115 limits assumed): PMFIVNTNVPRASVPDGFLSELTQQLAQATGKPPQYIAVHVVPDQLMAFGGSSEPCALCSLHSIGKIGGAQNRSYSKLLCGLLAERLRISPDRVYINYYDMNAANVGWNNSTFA
Procedure: Tautomerase activity was assessed using 4-hydroxyphenylpyruvate (4-HPP) as substrate. 4-HPP was dissolved in 50 mM ammonium acetate at pH 6.0, allowed to equilibrate to room temperature and stored at −20° C. 300 ng/mL of recombinant human MIF (rhMIF; RayBiotech, Le Perray en Yvelines, France) and tested compounds were pre-incubated at room temperature for 15 min. Tautomerase activity was assessed at room temperature, by adding 4-HHP to a 96-well plate containing 0.435 M boric acid at pH 6.6 and rhMIF with or without (positive control) tested compounds (1 nM), and by measuring the increase in absorbance at 320 nm over 10-360 s using the 2103 EnVision™ Multilabel Plate Readers (PerkinElmer, Villebon-sur-Yvette, France). Compounds were tested at 1 nM. The assay was replicated 3 to 6 times independently.

MCT-injected rats = assay: Rodent model of pulmonary hypertension (monocrotaline); type: in vivo; settings: for mean pulmonary arterial pressure (mPAP): 2 weeks; for degree of established PH: started one week after MCT
Procedure: Animal studies were approved by the administrative panel on animal care at the Univ. Paris-Sud, Le Plessis-Robinson, France. Young male Wistar rats (100 g, Janvier Labs, France) were studied 3 weeks after a single subcutaneous injection of monocrotaline (60 mg/kg) (Sigma-Aldrich, Saint-Quentin Fallavier, France), or vehicle. One week after a single subcutaneous injection of monocrotaline (MCT), rats were randomly divided into several groups and treated for 2 weeks with • (example 3) daily intraperitoneal injections of ISO-1, compound 1 of the invention (M3), M41, or vehicle (vehicle A: 50% (v/v) DMSO (Dimethyl sulfoxide) in normal saline for i.v. administrations) at a dose of 10 mg·kg^−1·day^−1; or • (example 4) daily per os administration of compounds of the invention, or vehicle (vehicle B: 33% DMSO, 45% propylene glycol, 21% saline) at a dose of 30 mg·kg^−1·day^−1.
Animals were anesthetized with isoflurane. A polyvinyl catheter was introduced into the right jugular vein and pushed through the right ventricle into the pulmonary artery. Cardiac output in rat was measured using the thermodilution method. After measurement of hemodynamic parameters, the thorax was opened and the left lung immediately removed and frozen. The right lung was fixed in the distended state with formalin buffer. The right ventricular hypertrophy (RVH) index and the percentage of muscularized vessels were determined as previously described (Guignabert C 2009 J Faseb 23 (12): 4135-4147).

DU-145 cell line = assay: MTT assay, cell proliferation and survival, DU-145; type: cell-based; settings: 24 h, effect significantly superior compared to ISO-1 (p<0.05); for cell survival: 0% FCS, at 100 μM and 50 μM
Procedure: (§1) P-ECs were isolated and cultured from lung specimens of patients with idiopathic pulmonary arterial hypertension (iPAH) as previously described (Tu et al., Am J Respir Cell Mol Biol. 2012). The isolated P-ECs were strongly positive for acetylated low-density lipoprotein coupled to Alexa 488 (Alexa488-Ac-LDL), von Willebrand factor (vWF), CD31, and for Ulex europaeus agglutinin-1 (UEA-1) and negative for alpha-smooth muscle actin (α-SMA). DU-145 cell lines and iPAH ECs were grown in MCDB131 medium (Fisher, Illkirch Cedex, France) supplemented with 10% fetal calf serum (FCS), penicillin-streptomycin solution, glutamine, HEPES and amphotericine.
(§2) To determine the impact of the compounds of the invention on the proliferation and the survival of DU-145 cell line and iPAH P-ECs, the methyl tetrazolium (MTT) assay was performed. To this aim, cells were plated in a 96-well plate and cultured in MCDB131 medium (Fisher, Illkirch Cedex, France) supplemented with 10% fetal calf serum (FCS) for 24 h. DU-145 and iPAH ECs monolayers were then washed and 50 or 100 μM of tested compounds were added with 0% (for cell survival assessment) or 10% (for cell proliferation assessment) of FCS for 24 h. Then, cells were incubated with 5 mg/mL of MTT for 6 h of incubation. At the end of the incubation time, medium was removed, dimethylsulfoxide (DMSO) was added in each well and absorbance was recorded at 590 nm using the microplate spectrophotometer system EnVision (PerkinElmer, Waltam, USA).

[1] = system: iPAH P-ECs (human pulmonary endothelial cells); assay: MTT assay, cell proliferation and survival, iPAH P-ECs; type: cell-based; settings: iPAH EC, 24 h, effect significantly superior compared to ISO-1 (p<0.05); for cell survival: 0% FCS, at 100 μM and 50 μM
Procedure: as §1, §2

[2] = 10 mg/kg daily intraperitoneal, compared to MCT-injected rats treated with vehicle A
[3] = daily intraperitoneal 10 mg/kg/day for 2 weeks, day 21
[4] = 30 mg/kg oral daily, compared to MCT-injected rats treated with vehicle B, p<0.05
[5] = oral daily 30 mg/kg/day for 2 weeks

Compound `Cc1ccc2oc(=S)n(Cc3ccccc3)c2c1` [Compound 3, 3-benzyl-5-methylbenzo[d]oxazole-2(3H)-thione] has an inhibition at 0.001 µM (recombinant human MIF) of 35%.

`Cc1ccc2oc(=S)n(Cc3cccc(O)c3)c2c1` [Compound 1, 3-(3-hydroxybenzyl)-5-methylbenzo[d]oxazole-2(3H)-thione] was tested, and the “inhibitory effect against the MIF tautomerase activity (in words)” value (recombinant human MIF; compound 1 compared to benzoxazol-2-one analogue M41, compounds of the invention compared to ISO-1) was “good inhibitory effect”, the inhibition at 0.001 µM (recombinant human MIF) was 41% and the “mean pulmonary arterial pressure (mPAP)” value (MCT-injected rats; [2]) was “substantial reduction in values of mPAP”. For the same compound, the “degree of established PH” value (MCT-injected rats; [3]) was “substantially attenuates the degree of established PH” and the “mPAP, compared to MCT-injected rats treated with ISO-1” value (MCT-injected rats; same dose, 10 mg/kg, p=0.0855) was “higher beneficial effects in mPAP”.

In the case of `COc1ccccc1Cn1c(=S)oc2ccc(C)cc21` [Compound 2, 3-(2-methoxybenzyl)-5-methylbenzo[d]oxazole-2(3H)-thione], the inhibition at 0.001 µM (recombinant human MIF) is reported as 36%.

With `Cc1ccc2oc(=S)n(Cc3ccc(F)c(O)c3)c2c1` [Compound 4, 3-(4-fluoro-3-hydroxybenzyl)-5-methylbenzo[d]oxazole-2(3H)-thione] the cell survival (DU-145 cell line) was “decrease significantly cell survival”, the inhibition at 0.001 µM (recombinant human MIF) was 39% and the cell survival [1] was “decrease significantly cell survival”. The “mean pulmonary arterial pressure (mPAP)” value (MCT-injected rats; [4]) was “substantial reduction” and the “degree of established PH” value (MCT-injected rats; [5]) was “substantially attenuates the degree of established PH”.

For `Cc1ccc2oc(=O)n(Cc3cccc(O)c3)c2c1` [Compound M41, reference compound], the inhibition at 0.001 µM (recombinant human MIF) was 29%, the mortality rate (MCT-injected rats; MCT-injected rats, 10 mg/kg/day intraperitoneal) was 5/6 and the “degree of established PH” value (MCT-injected rats; [3]) was “substantially attenuates the degree of established PH”.

In the case of `COC(=O)CC1CC(c2ccc(O)cc2)=NO1` (stereo not shown) [ISO-1, reference compound], the inhibition at 0.001 µM (recombinant human MIF) is reported as 21% and the “mean pulmonary arterial pressure (mPAP)” value (MCT-injected rats; [2]) is reported as “substantial reduction in values of mPAP”.

With `Oc1cc(Cn2c(=S)oc3ccc(C(F)(F)F)cc32)ccc1F` [Compound 5, 3-(4-fluoro-3-hydroxybenzyl)-5-(trifluoromethyl)benzo[d]oxazole-2(3H)-thione] the cell survival (DU-145 cell line) was “decrease significantly cell survival”, the cell proliferation (DU-145 cell line; 10% FCS, 50 or 100 μM) was “inhibit significantly cell proliferation” and the inhibition at 0.001 µM (recombinant human MIF) was 43%. For the same compound, the cell survival [1] was “decrease significantly cell survival”, the cell proliferation ([1]; 10% FCS, 50 or 100 μM) was “inhibit significantly cell proliferation” and the “mean pulmonary arterial pressure (mPAP)” value (MCT-injected rats; [4]) was “substantial reduction”. For the same compound, the “degree of established PH, compared with treatment by sildenafil” value (MCT-injected rats; compound 5 at 30 mg/kg oral daily for 2 weeks, sildenafil at 100 mg/kg) was “substantially attenuates the degree of established PH” and the “degree of established PH” value (MCT-injected rats; [5]) was “substantially attenuates the degree of established PH”.
